Read-outs that look alike come from different tables or passages of the source.
How the values were obtained:
[1] = target: T1, human recombinant adrenergic α1D receptor (Homo sapiens, UniProt P25100); experiment: Adrenergic α1D radioligand binding ([3H]Prozosin); settings: compound at 1 μM
T1 construct: expressed in transfected cells; host or cells: human embryonic kidney (HEK-293) cells
T1 sequence (P25100 1-572): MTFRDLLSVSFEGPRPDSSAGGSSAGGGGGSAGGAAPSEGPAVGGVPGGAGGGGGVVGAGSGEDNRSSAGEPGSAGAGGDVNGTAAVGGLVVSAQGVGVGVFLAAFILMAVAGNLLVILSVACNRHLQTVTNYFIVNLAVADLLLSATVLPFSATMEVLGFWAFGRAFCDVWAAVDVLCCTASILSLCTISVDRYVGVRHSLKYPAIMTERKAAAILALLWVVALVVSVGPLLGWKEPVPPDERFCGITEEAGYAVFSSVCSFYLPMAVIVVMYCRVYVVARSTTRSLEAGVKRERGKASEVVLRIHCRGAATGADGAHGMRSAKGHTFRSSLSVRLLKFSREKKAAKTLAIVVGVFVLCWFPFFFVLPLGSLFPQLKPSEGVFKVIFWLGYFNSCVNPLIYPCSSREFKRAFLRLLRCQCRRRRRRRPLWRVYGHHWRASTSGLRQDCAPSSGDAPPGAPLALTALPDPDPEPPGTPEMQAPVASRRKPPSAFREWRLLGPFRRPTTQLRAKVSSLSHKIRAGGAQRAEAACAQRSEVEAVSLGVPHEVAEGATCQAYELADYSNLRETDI
Experimental: Compounds of invention were incubated with 0.6 nM [^3H]Prozosin for 60 min. at 25° C. Non-specific binding was estimated in the presence of 10 μM phentolamine. Receptor proteins were filtered and washed, the filters were then counted to determine [^3H]Prozosin specifically bound. Compounds were screened at 1 μM or lower, using 1% DMSO as vehicle. Biochemical assay results are presented as the percent inhibition of specific binding in Table 9.

[2] = target: T2, human recombinant serotonin (5-Hydroxytryptamine) 5-HT2C receptor (Homo sapiens, UniProt P28335); experiment: Serotonin 5-HT2C radioligand binding ([3H]Mesulergine); settings: read-out: Inhibition of ligand binding, Serotonin 5-HT2C (percent inhibition of specific binding); for inhibition at 0.1 µM: compound at 0.1 μM; for inhibition at 1 µM: compound at 1 μM
T2 construct: expressed in transfected cells; host or cells: Chinese hamster ovary (CHO-K1) cells
T2 sequence (P28335 33-458): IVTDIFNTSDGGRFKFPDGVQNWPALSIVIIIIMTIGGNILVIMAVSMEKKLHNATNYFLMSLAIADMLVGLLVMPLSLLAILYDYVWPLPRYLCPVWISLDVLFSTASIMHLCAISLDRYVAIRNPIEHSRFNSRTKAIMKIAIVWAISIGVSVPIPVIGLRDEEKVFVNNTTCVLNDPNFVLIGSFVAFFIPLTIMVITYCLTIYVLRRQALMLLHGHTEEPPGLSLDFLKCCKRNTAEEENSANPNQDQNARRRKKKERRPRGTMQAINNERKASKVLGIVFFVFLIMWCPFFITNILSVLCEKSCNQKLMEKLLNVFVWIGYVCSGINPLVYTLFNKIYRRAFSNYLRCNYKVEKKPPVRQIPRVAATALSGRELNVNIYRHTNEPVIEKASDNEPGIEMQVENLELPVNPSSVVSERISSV
Summary of the method: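 Compounds tested at 1 μM or lower (1% DMSO vehicle) for displacement of 1 nM [3H]Mesulergine over 60 min at 25° C. Specific binding determined by filtration counting, with 1 μM Mianserin defining non-specific binding; values are percent inhibition.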

[3] = target: T3, human recombinant histamine H2 receptor (Homo sapiens, UniProt P25021); experiment: Histamine H2 radioligand binding ([125I]Aminopotentidine); settings: read-out: Histamine Binding (1 μM) H2, percent inhibition of specific binding, 1 μM
T3 construct: expressed in transfected cells; host or cells: Chinese hamster ovary (CHO) K1 cells
T3 sequence (P25021 whole entry): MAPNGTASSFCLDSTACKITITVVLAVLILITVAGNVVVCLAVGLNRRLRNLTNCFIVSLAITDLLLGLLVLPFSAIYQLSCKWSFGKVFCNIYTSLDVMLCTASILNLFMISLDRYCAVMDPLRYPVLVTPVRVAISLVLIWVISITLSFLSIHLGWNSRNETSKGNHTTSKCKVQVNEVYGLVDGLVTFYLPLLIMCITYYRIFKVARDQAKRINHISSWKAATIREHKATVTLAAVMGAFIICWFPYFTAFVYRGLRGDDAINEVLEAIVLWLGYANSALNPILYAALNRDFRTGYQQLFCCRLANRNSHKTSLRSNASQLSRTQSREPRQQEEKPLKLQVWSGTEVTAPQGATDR
Summary of the method: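 Receptor source: human recombinant H2 in CHO-K1 cells, assayed in 50 mM phosphate pH 7.4. Competition against 0.1 nM [125I]aminopotentidine, 120 min, 25 °C; 3 μM tiotidine sets nonspecific binding, filter-bound counts give specific binding.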

[4] = target: histamine receptor H1 (Homo sapiens, UniProt P35367); experiment: Histamine H1 radioligand binding ([3H]Pyrilamine); settings: for inhibition at 1 µM: read-out: Histamine Binding (1 μM) H1, percent inhibition of specific binding, 1 μM
Sequence of histamine receptor H1 (P35367 whole entry): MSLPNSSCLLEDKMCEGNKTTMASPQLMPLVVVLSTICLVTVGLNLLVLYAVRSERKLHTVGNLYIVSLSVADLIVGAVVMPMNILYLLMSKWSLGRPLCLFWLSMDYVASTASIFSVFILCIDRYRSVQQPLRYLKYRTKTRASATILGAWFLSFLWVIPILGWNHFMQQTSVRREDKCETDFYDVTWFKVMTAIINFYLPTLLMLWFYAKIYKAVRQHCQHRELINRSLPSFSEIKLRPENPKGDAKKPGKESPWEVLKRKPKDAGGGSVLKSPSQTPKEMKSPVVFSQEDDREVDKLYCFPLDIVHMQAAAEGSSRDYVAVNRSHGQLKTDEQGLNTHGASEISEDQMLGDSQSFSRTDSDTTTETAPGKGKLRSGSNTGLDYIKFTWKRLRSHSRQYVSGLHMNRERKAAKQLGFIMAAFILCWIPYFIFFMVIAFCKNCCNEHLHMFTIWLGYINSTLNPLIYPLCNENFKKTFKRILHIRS
Summary of the method: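 Values are percent inhibition of specific [3H]pyrilamine (1.2 nM) binding with compounds at ≤1 μM (1% DMSO vehicle); 180 min incubation at 25 °C, pH 7.4 Tris buffer, on CHO-expressed human H1 receptor; 1 μM pyrilamine defined nonspecific binding, bound ligand counted after filtration.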

[5] = percent inhibition of specific binding, read-out: Inhibition of ligand binding, Adrenergic α1D
[6] = read-out: Inhibition of ligand binding, Adrenergic α1D (percent inhibition of specific binding)

SMILES	inhibition at 1 µM [1, 5] [%]	inhibition at 0.1 µM [2] [%]	inhibition at 1 µM [2] [%]	inhibition at 1 µM [3] [%]	Histamine Binding (1 μM) H1, percent inhibition of specific binding [4] [%]	inhibition at 1 µM [4] [%]	inhibition at 1 µM [1, 6] [%]
C/C(=C\n1c2c(c3cc(C)ccc31)CN(C)CC2)c1ccc(Cl)cc1 [Compound 211, (E)-5-(2-(4-chlorophenyl)prop-1-enyl)-2,8-dimethyl-2,3,4,5-tetrahydro-1H-pyrido[4,3-b]indole]	96	98	107	100	54	53	–
CN1CCc2c(c3cc(Cl)ccc3n2/C=C(/c2ccc(F)cc2)C2CCC2)C1 [Compound 206, (E)-8-chloro-5-(2-cyclobutyl-2-(4-fluorophenyl)vinyl)-2-methyl-2,3,4,5-tetrahydro-1H-pyrido[4,3-b]indole]	102	–	98	102	–	76	–
CCC(O)(Cn1c2c(c3cc(C)ccc31)CN(C)CC2)c1ccc(F)cc1 (stereo not drawn) [Compound 175, 1-(2,8-dimethyl-3,4-dihydro-1H-pyrido[4,3-b]indol-5(2H)-yl)-2-(4-fluorophenyl)butan-2-ol]	75	–	95	91	–	71	–
CCOC(=O)/C=C(/Cn1c2c(c3cc(C)ccc31)CN(C)CC2)c1ccc(F)cc1 [Compound No. 350, (E)-ethyl 4-(2,8-dimethyl-3,4-dihydro-1H-pyrido[4,3-b]indol-5(2H)-yl)-3-(4-fluorophenyl)but-2-enoate]	–	–	87	93	37	27	85
C/C(=C\n1c2c(c3cc(Cl)ccc31)CN(C)CC2)c1ccc(Cl)cc1 [Compound 100, (E)-8-chloro-5-(2-(4-chlorophenyl)prop-1-enyl)-2,3,4,5-tetrahydro-2-methyl-1H-pyrido[4,3-b]indole]	87	104	97	100	67	65	–
Cc1ccc2c(c1)c1c(n2CC(O)c2cccnc2)CCN(C)C1 (stereo not drawn) [Compound 54, 2-(1,2,3,4-tetrahydro-2,8-dimethylpyrido[4,3-b]indol-5-yl)-1-(pyridin-3-yl)ethanol]	15	–	22	5	–	68	–
C/C(=C\n1c2c(c3cc(Cl)ccc31)CN(C)CC2)c1ccccc1F [Compound 213, (E)-8-chloro-5-(2-(2-fluorophenyl)prop-1-enyl)-2-methyl-2,3,4,5-tetrahydro-1H-pyrido[4,3-b]indole]	76	–	102	99	–	69	–
Cc1ccc2c(c1)c1c(n2C#Cc2ccc(C)nc2)CCN(C)C1 [Compound No. 476, 2,8-dimethyl-5-((6-methylpyridin-3-yl)ethynyl)-2,3,4,5-tetrahydro-1H-pyrido[4,3-b]indole]	–	–	95	88	–	27	95
CCC/C=C(/Cn1c2c(c3cc(Cl)ccc31)CN(C)CC2)c1ccc(F)cc1 [Compound No. 351, (E)-8-chloro-5-(2-(4-fluorophenyl)hex-2-enyl)-2-methyl-2,3,4,5-tetrahydro-1H-pyrido[4,3-b]indole]	–	–	101	100	80	78	45
C/C(=C\n1c2c(c3cc(Cl)ccc31)CN(C)CC2)c1ccc(C)nc1 [Compound 89, (E)-8-chloro-2,3,4,5-tetrahydro-2-methyl-5-(2-(6-methylpyridin-3-yl)prop-1-enyl)-1H-pyrido[4,3-b]indole]	87	–	98	91	–	43	–
CN1CCc2c(c3cc(C(=O)O)ccc3n2C#Cc2ccc(F)cc2)C1 [Compound No. 482, 5-((4-fluorophenyl)ethynyl)-2-methyl-2,3,4,5-tetrahydro-1H-pyrido[4,3-b]indole-8-carboxylic acid]	–	–	-12	-3	–	13	21
Cc1ccc2c(c1)c1c(n2C#Cc2ccc(Cl)cc2)CCN(C)C1 [Compound No. 481, 5-((4-chlorophenyl)ethynyl)-2,8-dimethyl-2,3,4,5-tetrahydro-1H-pyrido[4,3-b]indole]	–	–	104	97	–	12	77
CCOC(=O)/C=C(/Cn1c2c(c3cc(C)ccc31)CN(C)CC2)c1ccccc1 [Compound No. 347, (E)-ethyl 4-(2,8-dimethyl-3,4-dihydro-1H-pyrido[4,3-b]indol-5(2H)-yl)-3-phenylbut-2-enoate]	90	–	104	87	56	42	–
Cc1ccc2c(c1)c1c(n2CC(O)(c2ccccc2)c2ccc(F)cc2)CCN(C)C1 (stereo not drawn) [Compound No. 176, 2-(2,8-dimethyl-3,4-dihydro-1H-pyrido[4,3-b]indol-5(2H)-yl)-1-(4-fluorophenyl)-1-phenylethanol]	42	–	99	74	–	21	–
CNC(=O)c1ccc2c(c1)c1c(n2C#Cc2ccc(F)cc2)CCN(C)C1 [Compound No. 483, 5-((4-fluorophenyl)ethynyl)-N,2-dimethyl-2,3,4,5-tetrahydro-1H-pyrido[4,3-b]indole-8-carboxamide]	–	–	35	10	–	-1	59
C/C(=C\n1c2c(c3ccccc31)CN(C)CC2)c1ccc(F)cc1 [Compound 205, (E)-5-(2-(4-fluorophenyl)prop-1-enyl)-2-methyl-2,3,4,5-tetrahydro-1H-pyrido[4,3-b]indole]	90	96	100	95	39	31	–
CN1CCc2c(c3cc(Cl)ccc3n2CC(C)(O)c2ccncc2)C1 (stereo not drawn) [Compound 63, 1-(8-chloro-1,2,3,4-tetrahydro-2-methylpyrido[4,3-b]indol-5-yl)-2-(pyridin-4-yl)propan-2-ol]	84	–	95	53	–	46	–
Cc1ccc2c(c1)c1c(n2CC(C)(O)c2ccc(F)cc2)CCN(C)C1 (stereo not drawn) [Compound 55, 2-(4-fluorophenyl)-1-(1,2,3,4-tetrahydro-2,8-dimethylpyrido[4,3-b]indol-5-yl)propan-2-ol]	64	–	93	88	–	91	–

Reference: patent US8906925B2, “Pyrido[4,3-B]indoles containing rigid moieties” (Medivation Technologies, Inc., priority 2008, dated 2014)
